Patent US20090088460A1, “Administration of E-3[3-[N-(4-methoxybenzenesulfonyl)-N-isopropylamino]phenyl]-3-(3-pyridyl)propenohydroxamic acid for preventing and/or treating inflammatory cutaneous pathologies/afflictions” (GALDERMA RESEARCH &DEVELOPMENT, priority 2007, published 2009)

Assays:
[1] = system: arachidonic acid-induced mouse ear edema; assay: Arachidonic acid-induced mouse ear edema test, single topical application; type: in vivo; settings: Balb/c mice; for reduction of the arachidonic acid-induced ear edema: 20 μl on right ear
Experimental: Evaluation of the Anti-Inflammatory Activity of W3646 (Compound (I)) after Single Topical Application in the Arachidonic Acid-Induced Mouse Ear Edema Test on Balb/c Mice
The arachidonic acid is dissolved in a mixture of THF/methanol at 4%.
The test compound is dissolved in the solution of arachidonic acid (AA) at the final concentration, and tested at concentrations of 0.1, 0.3 and 1%.
20 μl of the solution are applied to the inner face of the right ear.
The thickness of the ear is measured at T+1 h, T+2 h and T+4 h.

[2] = system: TPA-induced mouse ear edema; assay: TPA-induced mouse ear edema test, single topical application; type: in vivo; settings: Balb/c mice; for reduction of the TPA-induced ear edema: T+6 h
Experimental: Evaluation of the Anti-Inflammatory Activity of W3646 (Compound (I)) after Single Topical Application in the TPA-Induced Mouse Ear Edema Test on Balb/c Mice (TPA=Tetradecanoylphorbol Acetate)
The edema is induced by single application of 20 μl of TPA dissolved in acetone at 0.01%. […]
A positive control, β-methasone valerate (VdB), is also tested.
The thickness of the mouse ear is measured at T+6 h.

COc1ccc2c(c1)c(CC(=O)O)c(C)n2C(=O)c1ccc(Cl)cc1 [Indomethacin, reference compound]
inhibition of the ear edema caused by arachidonic acid ([1]; indomethacin at 5%, single topical application in 4% arachidonic acid solution, ear thickness measured T+1 h, T+2 h, T+4 h): 92%

COc1ccc(S(=O)(=O)N(c2cccc(/C(=C\C(=O)NO)c3cccnc3)c2)C(C)C)cc1 [W3646, E-3-[3-[N-(4-methoxybenzene-sulfonyl)-N-isopropylamino]phenyl]-3-(3-pyridyl)-propenohydroxamic acid]
reduction of the arachidonic acid-induced ear edema ([1]; 0.1% topical in 4% arachidonic acid solution, NS): 16%
reduction of the arachidonic acid-induced ear edema ([1]; 0.3% topical in 4% arachidonic acid solution, *): 49%
reduction of the arachidonic acid-induced ear edema ([1]; 1% topical in 4% arachidonic acid solution, **): 71%
reduction of the TPA-induced ear edema ([2]; 0.1% in 0.01% TPA solution, NS): 26%
reduction of the TPA-induced ear edema ([2]; 0.3% in 0.01% TPA solution, **): 53%
reduction of the TPA-induced ear edema ([2]; 1% in 0.01% TPA solution, ***): 79%

CCCCC(=O)O[C@]1(C(=O)CO)[C@@H](C)C[C@H]2[C@@H]3CCC4=CC(=O)C=C[C@]4(C)[C@@]3(F)[C@@H](O)C[C@@]21C [betamethasone valerate, reference compound]
reduction in the TPA-induced ear edema ([2]; 0.01% diluted in 0.01% TPA solution, ear thickness at T+6 h, ***): 93%
